The test addresses TNFα (Homo sapiens (Human), UniProt P01375). Nature of the test: TNF induced HEK-Blue assay. In kind it is cell-based. The note with it: TNFα 0.5 ng/ml; HEK-Blue-CD40L cells, NF-κB-driven secreted alkaline phosphatase reporter; 18 h. On the procedure:
Test compounds serially diluted in DMSO were plated in an assay plate (Labcyte, Cat. #LP-0200) at final concentrations ranging from 0.004 μM to 25 μM. TNFα (final concentration 0.5 ng/ml) or CD40L (final concentration 30 ng/ml) in assay buffer [DMEM, 4.5 g/l glucose (Gibco, Cat. 21063-029), 10% FBS (Sigma, F4135), 1% Penicillin-Streptomycin (Gibco, Cat. 15140-122), 1% Anti-Anti (Gibco, Cat. 15240-112) and 2 mM L-glutamine (Gibco, Cat. 25030-081)] was then added to the assay plate. After a 30 minute pre-incubation at 37° C. and 5% CO2, HEK-Blue-CD40L cells (InvivoGen, Cat. Code hkb-cd40) containing a NF-κB-driven secreted alkaline phosphatase reporter gene were seeded into the assay plate at a density of 20,000 cells per well. This plate was then incubated for 18 h at 37° C. and 5% CO2. Secreted alkaline phosphatase expression was measured using QUANTI-Blue (InvivoGen, Cat. Code rep-qb1) according to manufacturer's specifications and the assay plate was read on a PerkinElmer Envision at 620 nm.
Inhibition data for the test compound over a range of concentrations was plotted as percentage inhibition of the test compound (100%=maximum inhibition). IC50 values were determined after correcting for background [(sample read−mean of low control)/(mean of high control−mean of low control)] where by the low control is DMSO without stimulation and high control is DMSO with stimulation. The IC50 is defined as the concentration of test compound which produces 50% inhibition and was quantified using the 4 parameter logistic equation to fit the data.
Table 5 lists the IC50 values measured in the TNF induced HEK-Blue assay for Examples 1 to 40 of this invention.

TNFα, sequence (P01375 77-233): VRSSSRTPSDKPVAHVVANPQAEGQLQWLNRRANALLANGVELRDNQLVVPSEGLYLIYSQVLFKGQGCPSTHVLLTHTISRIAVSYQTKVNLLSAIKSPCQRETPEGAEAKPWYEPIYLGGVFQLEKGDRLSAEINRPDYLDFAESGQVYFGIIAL

As to `CC(C)(O)c1ncc(-c2ccc3nc4n(c3n2)C(c2ccccc2OC(F)F)CC4O)cn1` (stereo not shown) [Example 11 (e4), 8-(2-(difluoromethoxy)phenyl)-2-(2-(2-hydroxypropan-2-yl)pyrimidin-5-yl)-7,8-dihydro-6H-pyrrolo[2′,1′:2,3]imidazo[4,5-b]pyridin-6-ol], the IC50 lay within 1 to 10 µM.
The same measure for `CC(C)(O)c1ccc(-c2ccc3nc4n(c3n2)C(c2ccccc2C2CC2)CC4F)cc1` (stereo not shown) [Example 21 (e3), 2-(4-(8-(2-cyclopropylphenyl)-6-fluoro-7,8-dihydro-6H-pyrrolo[2′,1′:2,3]imidazo[4,5-b]pyridin-2-yl)phenyl)propan-2-ol]: 1 to 10 µM; for `Cc1ccc(C)c(C2CC(O)c3nc4ccc(-c5ccc(C(C)(C)O)cc5)nc4n32)c1` (stereo not shown) [Example 4 (DM), 8-(2,5-dimethylphenyl)-2-(4-(2-hydroxypropan-2-yl)phenyl)-7,8-dihydro-6H-pyrrolo[2′,1′:2,3]imidazo[4,5-b]pyridin-6-ol]: < 1 µM; for `COc1ccc(-c2ccc3nc4n(c3n2)C(c2ccccc2OC(F)F)CC4F)cn1` (single isomer, unassigned) [Example 18 (e1), 8-(2-(difluoromethoxy)phenyl)-6-fluoro-2-(6-methoxypyridin-3-yl)-7,8-dihydro-6H-pyrrolo[2′,1′:2,3]imidazo[4,5-b]pyridine]: < 1 µM.
Take `CC(C)(O)c1ccc(-c2ccc3nc4n(c3n2)C(c2c(F)cccc2C(F)(F)F)CC4)cc1` (racemic) [Example 32 (rac), 2-(4-(8-(2-fluoro-6-(trifluoromethyl)phenyl)-7,8-dihydro-6H-pyrrolo[2′,1′:2,3]imidazo[4,5-b]pyridin-2-yl)phenyl)propan-2-ol]: the IC50 was < 1 µM.
The same measure for `CC(C)(O)c1ccc(-c2ccc3nc4n(c3n2)C(c2ccccc2OC(F)(F)F)CC4F)cc1` (single isomer, unassigned) [Example 22 (e4), 2-(4-(6-fluoro-8-(2-(trifluoromethoxy)phenyl)-7,8-dihydro-6H-pyrrolo[2′,1′:2,3]imidazo[4,5-b]pyridin-2-yl)phenyl)propan-2-ol]: < 1 µM; for `Cc1ccc(C(F)(F)F)cc1C1CC(O)c2nc3ccc(-c4ccc(C(C)(C)O)cc4)nc3n21` (stereo not shown) [Example 7 (DM), 2-(4-(2-hydroxypropan-2-yl)phenyl)-8-(2-methyl-5-(trifluoromethyl)phenyl)-7,8-dihydro-6H-pyrrolo[2′,1′:2,3]imidazo[4,5-b]pyridin-6-ol]: 1 to 10 µM; for `Cc1ccc(C)c(C2CC(F)c3nc4ccc(-c5cnc(C(C)(C)O)nc5)nc4n32)c1` (stereo not shown) [Example 20 (DM), 2-(5-(8-(2,5-dimethylphenyl)-6-fluoro-7,8-dihydro-6H-pyrrolo[2′,1′:2,3]imidazo[4,5-b]pyridin-2-yl)pyrimidin-2-yl)propan-2-ol]: < 1 µM.
The result for `CC(C)(O)c1ccc(-c2ccc3nc4n(c3n2)C(c2c(F)cccc2C(F)(F)F)CC4F)cc1` (stereo not shown) [Example 23 (e1), 2-(4-(6-fluoro-8-(2-fluoro-6-(trifluoromethyl)phenyl)-7,8-dihydro-6H-pyrrolo[2′,1′:2,3]imidazo[4,5-b]pyridin-2-yl)phenyl)propan-2-ol] reads < 1 µM; that for `CC(C)(O)c1ccc(-c2ccc3nc4n(c3n2)C(c2ccccc2OC(F)F)CC4O)cc1` (single isomer, unassigned) [Example 2 (e3), 8-(2-(difluoromethoxy)phenyl)-2-(4-(2-hydroxypropan-2-yl)phenyl)-7,8-dihydro-6H-pyrrolo[2′,1′:2,3]imidazo[4,5-b]pyridin-6-ol], 1 to 10 µM; that for `CC(C)(O)c1ccc(-c2ccc3nc4n(c3n2)C(c2ccccc2OC(F)F)CC4F)cc1` (stereo not shown) [Example 15 (e1), 2-(4-(8-(2-(difluoromethoxy)phenyl)-6-fluoro-7,8-dihydro-6H-pyrrolo[2′,1′:2,3]imidazo[4,5-b]pyridin-2-yl)phenyl)propan-2-ol], < 1 µM.
The result for `CC(C)(O)c1ccc(-c2ccc3nc4n(c3n2)C(c2ccccc2C(F)(F)F)CC4)cc1` (racemic) [Example 25 (rac), 2-(4-(8-(2-(Trifluoromethyl)phenyl)-7,8-dihydro-6H-pyrrolo[2′,1′:2,3]imidazo[4,5-b]pyridin-2-yl)phenyl)propan-2-ol] reads < 1 µM; that for `CC(C)(O)c1ccc(-c2ccc3nc4n(c3n2)C(c2c(F)cccc2C(F)(F)F)CC4)cc1` (single isomer, unassigned) [Example 32 (e1), 2-(4-(8-(2-fluoro-6-(trifluoromethyl)phenyl)-7,8-dihydro-6H-pyrrolo[2′,1′:2,3]imidazo[4,5-b]pyridin-2-yl)phenyl)propan-2-ol], < 1 µM.
Molecule `COc1ccccc1C1CC(O)c2nc3ccc(-c4ccc(C(C)(C)O)cc4)nc3n21` (single isomer, unassigned) [Example 12 (e3), 2-(4-(2-hydroxypropan-2-yl)phenyl)-8-(2-methoxyphenyl)-7,8-dihydro-6H-pyrrolo[2′,1′:2,3]imidazo[4,5-b]pyridin-6-ol] returned a half-maximal inhibitory concentration (IC50) of 10 to 25 µM.
The molecule `COc1ccccc1C1CC(O)c2nc3ccc(-c4ccc(C(C)(C)O)cc4)nc3n21` (single isomer, unassigned) [Example 12 (e2), 2-(4-(2-hydroxypropan-2-yl)phenyl)-8-(2-methoxyphenyl)-7,8-dihydro-6H-pyrrolo[2′,1′:2,3]imidazo[4,5-b]pyridin-6-ol] gave an IC50 of 1 to 10 µM.
The same measure for `CC(C)(O)c1ccc(-c2ccc3nc4n(c3n2)C(c2cc(C(F)(F)F)ccc2C(F)(F)F)CC4O)cc1` (stereo not shown) [Example 8 (DM), 8-(2,5-bis(trifluoromethyl)phenyl)-2-(4-(2-hydroxypropan-2-yl)phenyl)-7,8-dihydro-6H-pyrrolo[2′,1′:2,3]imidazo[4,5-b]pyridin-6-ol]: 1 to 10 µM.
The same measure for `Cn1cc(-c2ccc3nc4n(c3n2)C(c2ccccc2OC(F)F)CC4)cn1` (racemic) [Example 30 (rac), 8-(2-(difluoromethoxy)phenyl)-2-(1-methyl-1H-pyrazol-4-yl)-7,8-dihydro-6H-pyrrolo[2′,1′:2,3]imidazo[4,5-b]pyridine]: 1 to 10 µM.
The result for `CC(C)(O)c1ccc(-c2ccc3nc4n(c3n2)C(c2ccccc2OC(F)(F)F)CC4F)cc1` (stereo not shown) [Example 22 (e3), 2-(4-(6-fluoro-8-(2-(trifluoromethoxy)phenyl)-7,8-dihydro-6H-pyrrolo[2′,1′:2,3]imidazo[4,5-b]pyridin-2-yl)phenyl)propan-2-ol] reads 1 to 10 µM.
`Cc1ccc(C)c([C@H]2CCc3nc4ccc(-c5cnn(C)c5)nc4n32)c1` [Example 40, (R)-8-(2,5-dimethylphenyl)-2-(1-methyl-1H-pyrazol-4-yl)-7,8-dihydro-6H-pyrrolo[2′,1′:2,3]imidazo[4,5-b]pyridine]: the half-maximal inhibitory concentration (IC50) fell in the range of 1 to 10 µM.
The result for `CC(C)(O)c1ccc(-c2ccc3nc4n(c3n2)C(c2ccccc2OC(F)F)CC4F)cc1` (stereo not shown) [Example 15 (e4), 2-(4-(8-(2-(difluoromethoxy)phenyl)-6-fluoro-7,8-dihydro-6H-pyrrolo[2′,1′:2,3]imidazo[4,5-b]pyridin-2-yl)phenyl)propan-2-ol] reads 10 to 25 µM.
As to `CC(C)(O)c1ccc(-c2ccc3nc4n(c3n2)C(c2c(F)cccc2C(F)(F)F)CC4O)cc1` (single isomer, unassigned) [Example 3 (e1), 8-(2-fluoro-6-(trifluoromethyl)phenyl)-2-(4-(2-hydroxypropan-2-yl)phenyl)-7,8-dihydro-6H-pyrrolo[2′,1′:2,3]imidazo[4,5-b]pyridin-6-ol], the IC50 is < 1 µM.
The result for `CC(C)(O)c1ccc(-c2ccc3nc4n(c3n2)C(c2cc(F)ccc2C(F)(F)F)CC4F)cc1` (single isomer, unassigned) [Example 24 (e1), 2-(4-(6-fluoro-8-(5-fluoro-2-(trifluoromethyl)phenyl)-7,8-dihydro-6H-yrrolo[2′,1′:2,3]imidazo[4,5-b]pyridin-2-yl)phenyl)propan-2-ol] reads 1 to 10 µM.
On to `CC(C)(O)c1ccc(-c2ccc3nc4n(c3n2)C(c2ccccc2C2CC2)CC4O)cc1` (stereo not shown) [Example 9 (e1), 8-(2-cyclopropylphenyl)-2-(4-(2-hydroxypropan-2-yl)phenyl)-7,8-dihydro-6H-pyrrolo[2′,1′:2,3]imidazo[4,5-b]pyridin-6-ol], for which the IC50 is < 1 µM.
In the case of `CC(C)(O)c1ccc(-c2ccc3nc4n(c3n2)C(c2c(F)cccc2C(F)(F)F)CC4O)cc1` (single isomer, unassigned) [Example 3 (e3), 8-(2-fluoro-6-(trifluoromethyl)phenyl)-2-(4-(2-hydroxypropan-2-yl)phenyl)-7,8-dihydro-6H-pyrrolo[2′,1′:2,3]imidazo[4,5-b]pyridin-6-ol], the IC50 is < 1 µM.
The same measure for `Cc1ccc(C)c([C@H]2CCc3nc4ccc(-c5cnc(C(C)(C)O)nc5)nc4n32)c1` [Example 36, (R)-2-(5-(8-(2,5-Dimethylphenyl)-7,8-dihydro-6H-pyrrolo[2′,1′:2,3]imidazo[4,5-b]pyridin-2-yl)pyrimidin-2-yl)propan-2-ol]: < 1 µM.
